{
  "source": "patent US20230414826A1",
  "about": "“FIBRIN HYDROGELS” (Mayo Foundation for Medical Education and Research, priority 2020, published 2023)",
  "biological_target": "T1, fibrinogen (Evicel) (Homo sapiens, UniProt P02671+P02675+P02679)",
  "T1 construct": "purchased Ethicon (Evicel Biologically Active Component 2)",
  "T1 sequence (P02671 20-629 limits assumed)": "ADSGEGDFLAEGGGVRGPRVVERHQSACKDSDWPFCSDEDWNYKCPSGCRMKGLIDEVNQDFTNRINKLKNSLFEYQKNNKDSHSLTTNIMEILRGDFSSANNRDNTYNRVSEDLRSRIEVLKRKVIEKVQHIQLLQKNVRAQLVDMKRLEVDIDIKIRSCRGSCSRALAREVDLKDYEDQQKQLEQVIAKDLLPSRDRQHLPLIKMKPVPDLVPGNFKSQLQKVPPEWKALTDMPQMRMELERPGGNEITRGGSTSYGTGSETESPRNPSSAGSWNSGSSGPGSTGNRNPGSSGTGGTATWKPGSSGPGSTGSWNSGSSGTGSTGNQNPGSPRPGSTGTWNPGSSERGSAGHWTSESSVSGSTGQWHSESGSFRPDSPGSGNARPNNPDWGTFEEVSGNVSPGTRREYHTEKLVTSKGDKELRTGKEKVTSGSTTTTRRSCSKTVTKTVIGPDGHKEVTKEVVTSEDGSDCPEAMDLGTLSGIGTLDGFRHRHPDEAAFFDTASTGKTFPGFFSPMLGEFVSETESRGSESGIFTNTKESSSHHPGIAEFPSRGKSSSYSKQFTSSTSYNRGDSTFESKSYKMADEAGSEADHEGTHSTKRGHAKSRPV",
  "T1 sequence (P02675 31-491)": "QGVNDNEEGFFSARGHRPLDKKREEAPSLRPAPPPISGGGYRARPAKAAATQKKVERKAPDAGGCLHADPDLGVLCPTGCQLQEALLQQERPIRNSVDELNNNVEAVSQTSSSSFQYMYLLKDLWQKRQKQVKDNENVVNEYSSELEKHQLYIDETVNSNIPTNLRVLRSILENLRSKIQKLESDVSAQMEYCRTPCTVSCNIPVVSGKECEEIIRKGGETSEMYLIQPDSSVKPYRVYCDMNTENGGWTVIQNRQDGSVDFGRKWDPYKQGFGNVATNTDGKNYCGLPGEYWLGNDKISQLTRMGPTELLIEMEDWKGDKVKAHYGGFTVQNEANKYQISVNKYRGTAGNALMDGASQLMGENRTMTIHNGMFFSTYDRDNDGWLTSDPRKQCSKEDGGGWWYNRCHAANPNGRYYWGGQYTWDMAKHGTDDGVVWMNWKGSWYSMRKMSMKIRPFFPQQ",
  "T1 sequence (P02679 27-433 limits assumed)": "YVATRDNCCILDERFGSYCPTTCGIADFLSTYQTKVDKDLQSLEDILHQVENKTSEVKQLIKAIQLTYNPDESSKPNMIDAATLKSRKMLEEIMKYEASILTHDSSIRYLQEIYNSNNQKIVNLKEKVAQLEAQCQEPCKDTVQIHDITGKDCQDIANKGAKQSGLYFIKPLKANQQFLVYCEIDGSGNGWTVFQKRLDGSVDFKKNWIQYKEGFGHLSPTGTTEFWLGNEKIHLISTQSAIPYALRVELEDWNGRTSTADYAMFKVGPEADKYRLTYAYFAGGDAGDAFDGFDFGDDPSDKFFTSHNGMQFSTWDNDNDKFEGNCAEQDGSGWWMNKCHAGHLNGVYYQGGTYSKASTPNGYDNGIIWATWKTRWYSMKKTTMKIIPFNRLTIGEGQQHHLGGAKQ",
  "assay": "Fibrinogen clotting assay with coagulation analyzer (Clauss method), tissue glue fibrinogen",
  "assay_type": "biochemical",
  "settings": "for Effect on Clotting Time: screen, multiple concentrations up to 4.58 mM; for gelation time (average clotting time): 4.58 mM additive in PBS, fixed 1:20 dilution of fibrinogen (Evicel), n=10",
  "data": [
    {"molecule": "Alcian Blue [AB, reference compound]", "values": [
      {"measurement": "Effect on Clotting Time", "value": "caused protein precipitation"},
      {"measurement": "Effect on Clotting Time", "setting": "listed as Alcian Blue (AB)", "value": "Precip"}
    ]},
    {"molecule": "Cc1cc(N=Nc2ccc(C)c(N=Nc3cc(C)c(N)cc3N)c2)c(N)cc1N.Cl.Cl", "note": "[BBr, Bismarck Brown R, reference compound]", "values": [
      {"measurement": "gelation time (average clotting time)", "value": "18.9 ± 3.3", "unit": "s"},
      {"measurement": "Effect on Clotting Time", "value": "No effect"}
    ]},
    {"molecule": "O=C([O-])c1ccccc1-c1c2ccc(=O)cc-2oc2cc([O-])ccc12.[Na+].[Na+]", "note": "[SF, Sodium Fluorescein, reference compound]", "values": [
      {"measurement": "gelation time (average clotting time)", "value": "18.5 ± 2.6", "unit": "s"},
      {"measurement": "Effect on Clotting Time", "value": "No effect"}
    ]},
    {"molecule": "Brilliant Blue R [BB, reference compound]", "values": [
      {"measurement": "Effect on Clotting Time", "value": "caused protein precipitation"},
      {"measurement": "Effect on Clotting Time", "setting": "listed as Brilliant Blue R (BB)", "value": "Precip"}
    ]},
    {"molecule": "Nc1c(/N=N/c2ccc(-c3ccc(/N=N/c4cc(S(=O)(=O)O)c5ccccc5c4N)cc3)cc2)cc(S(=O)(=O)O)c2ccccc12", "note": "[CR, Congo Red, reference compound]", "values": [
      {"measurement": "Effect on Clotting Time", "value": "caused protein precipitation"},
      {"measurement": "Effect on Clotting Time", "setting": "listed as Congo Red (CR)", "value": "Precip"}
    ]},
    {"molecule": "CC1(C)C(/C=C/C=C/C=C/C=C2\\N(CCCCS(=O)(=O)O)c3ccc4ccccc4c3C2(C)C)=[N+](CCCCS(=O)(=O)[O-])c2ccc3ccccc3c21", "note": "[ICG, Indocyanine Green, reference compound]", "values": [
      {"measurement": "Effect on Clotting Time", "value": "caused protein precipitation"},
      {"measurement": "Effect on Clotting Time", "setting": "listed as Indocyanine Green (ICG)", "value": "Precip"}
    ]}
  ]
}
